Experimental data taken from paper PMC7906334, “The cell surface protein MUL_3720 confers binding of the skin pathogen Mycobacterium ulcerans to sulfated glycans and keratin” (PLoS Neglected Tropical Diseases, 2021).

Columns and labels:
MUL_3720 [1] = target: T1, MUL_3720 (Mycobacterium ulcerans, UniProt A0PU23); experiment: glycan array (fluorescence); type: binding; details: glycan printed on slide via spacer; 1 mM CaCl2 and 1 mM MgCl2 PBS printed for the cell arrays
T1 construct: full length aa 1-207 in pET28a, recombinant, purified; 22 kDa; the MUL_ locus tags are those of strain Agy99
Description: glycan array (fluorescence) on MUL_3720

MUL_3720 [2] = target: T1, MUL_3720; experiment: SPR (Biacore T200); type: binding; details: read-out: MUL_3720; protein amine-immobilised on CM5 chip, free glycan as analyte
[3] = target: MUL_3720 (Mycobacterium ulcerans) (UniProt A0PU23); experiment: SPR; Biacore T200; MUL_3720 immobilised on a CM5 chip at pH 4.5 (5 uL/min, 600 s), ethanolamine blank flow cell as control; keratin extract flowed between 2 nM and 20 uM; double reference subtracted

| Compound | fold change in fluorescence binding signal (MUL_3720 [1]) | other results |
| --- | --- | --- |
| 3,6-O-Su2-Galβ1-4(6-O-Su)GlcNAcβ-sp2 [compound 189] | 2.46±0.56 fold |  |
| 3,6-O-Su2-Galβ1-4GlcNAcβ-sp2 [compound 182] | 3.29±1.77 fold |  |
| 4,6-O-Su2-GalNAcβ1-4-(3-O-Ac)GlcNAcβ-sp3 [compound 199] | 2.45±0.87 fold |  |
| 6-O-Su-Galβ1-3(6-O-Su)GlcNAcβ-sp2 [compound 179] | 1.48±0.33 fold |  |
| 6-O-Su-Galβ1-3GalNAcα-sp3 [compound 151] | 2.44±0.88 fold |  |
| 6-O-Su-Galβ1-3GlcNAcβ-sp3 [compound 161] | 2.49±0.26 fold |  |
| CC(=O)N[C@H]1C(O)O[C@H](CO)[C@@H](O[C@@H]2O[C@@H](C)[C@@H](O)[C@@H](O)[C@@H]2O)[C@@H]1O[C@@H]1O[C@H](CO)[C@H](O)[C@H](OS(=O)(=O)O)[C@H]1O[C@@H]1O[C@@H](C)[C@@H](O)[C@@H](O)[C@@H]1O (stereo partly shown) [Fucα1-2(3-O-Su)Galβ1-3(Fucα1–4)GlcNAc] |  | Kd (MUL_3720 [2]): 17400 ± 1900 nM |
| CC(=O)N[C@H]1C(O)O[C@H](COS(=O)(=O)O)[C@H](O)[C@@H]1O[C@@H]1OC(C(=O)O)=C[C@H](O)[C@H]1O (stereo partly drawn) [chondroitin 6S-disaccharide ΔUAα 1-3GalNAc-6S] |  | Kd (MUL_3720 [2]): 99.2 ± 35 nM |
| CC(=O)N[C@H]1[C@H](OCCCN)O[C@H](CO)[C@@H](O[C@@H]2O[C@H](CO)[C@H](OS(=O)(=O)O)[C@H](OS(=O)(=O)O)[C@H]2O)[C@@H]1O [compound 201, 3,4-O-Su2-Galβ1-4GlcNAcβ-sp3] | 1.52±0.64 fold |  |
| keratin isolated from human epidermis (mixed keratins with average molecular weight of 64.1 kDa) |  | Kd [3]: 4.78 nM |
